Test results reported in patent US8147852B2, “Modified azole compounds as antifungal and antibacterial agents” (Barrier Therapeutics, Inc., priority 2006, dated 2012).
In brackets after ≈: the same amount, converted by molar mass.

Tests used:
Assay type in all cases: cell-based
C. albicans = test: MIC100 against C. albicans strains; conditions: Candida albicans, 48 h
C. glabrata = test: MIC100 against C. glabrata strains; conditions: Nakaseomyces glabratus, 48 h
C. tropicalis = test: MIC100 against C. tropicalis; conditions: Candida tropicalis; C. tropicalis 19596(w.t), wild type; 48 h

Clc1ccc(COC(Cn2ccnc2)c2ccc(Cl)cc2Cl)c(Cl)c1 (stereo not shown) [miconazole]
MIC (C. albicans; C. albicans 19457(w.t), wild type): 4.17 µM (≈ 1.74 µg/mL)
MIC (C. albicans; C. albicans 19507(r), resistant): 4.17 µM (≈ 1.74 µg/mL)
MIC (C. albicans; C. albicans 20126(r), resistant): 17 µM (≈ 7.07 µg/mL)
MIC (C. glabrata; C. glabrata 05/1032(r), resistant): 8.3 µM (≈ 3.45 µg/mL)
MIC (C. glabrata; C. glabrata 05/1414(r), resistant): 17 µM (≈ 7.07 µg/mL)
MIC (C. glabrata; C. glabrata 19371(w.t.), wild type): 4.17 µM (≈ 1.74 µg/mL)
MIC (C. tropicalis): 8.3 µM (≈ 3.45 µg/mL)
